Source: US8822754B2, “Ecdysone receptor-based inducible gene expression system” (Intrexon Corporation, priority 2000, dated 2014)

Tests used:
GAL4USP + VP16CfEcR = experiment: Transactivation of reporter genes through switch 1.5 in CHO cells; assay type: cell-based, Choristoneura fumiferana; settings: switch 1.5 GAL4USP + VP16CfEcR, pGAL4RELuc
Experimental: This construct was prepared in the same way as switch 1.3 except MmRXRDEF was replaced with CfUSPDEF (SEQ ID NO: 58).
The cells were harvested and reporter activity was assayed.
(§1) Cells were harvested 24-48 hr after adding ligands. […] Twenty μl of lysate was assayed.

DmVgRXR + MmRXR = molecular target: T1, DmVgRXR + MmRXR (Drosophila melanogaster, UniProt P34021, E282G/G283S/G286V); experiment: Transactivation of reporter genes through switch 1.8 in 293 cells; assay type: cell-based; settings: switch 1.8 DmVgRXR + MmRXR, pIND(SP1)LacZ
T1 construct: host or cells: CHO, NIH3T3, 293 or CV1 cells (one cell line per assay)
T1 sequence (P34021 whole entry E282G/G283S/G286V): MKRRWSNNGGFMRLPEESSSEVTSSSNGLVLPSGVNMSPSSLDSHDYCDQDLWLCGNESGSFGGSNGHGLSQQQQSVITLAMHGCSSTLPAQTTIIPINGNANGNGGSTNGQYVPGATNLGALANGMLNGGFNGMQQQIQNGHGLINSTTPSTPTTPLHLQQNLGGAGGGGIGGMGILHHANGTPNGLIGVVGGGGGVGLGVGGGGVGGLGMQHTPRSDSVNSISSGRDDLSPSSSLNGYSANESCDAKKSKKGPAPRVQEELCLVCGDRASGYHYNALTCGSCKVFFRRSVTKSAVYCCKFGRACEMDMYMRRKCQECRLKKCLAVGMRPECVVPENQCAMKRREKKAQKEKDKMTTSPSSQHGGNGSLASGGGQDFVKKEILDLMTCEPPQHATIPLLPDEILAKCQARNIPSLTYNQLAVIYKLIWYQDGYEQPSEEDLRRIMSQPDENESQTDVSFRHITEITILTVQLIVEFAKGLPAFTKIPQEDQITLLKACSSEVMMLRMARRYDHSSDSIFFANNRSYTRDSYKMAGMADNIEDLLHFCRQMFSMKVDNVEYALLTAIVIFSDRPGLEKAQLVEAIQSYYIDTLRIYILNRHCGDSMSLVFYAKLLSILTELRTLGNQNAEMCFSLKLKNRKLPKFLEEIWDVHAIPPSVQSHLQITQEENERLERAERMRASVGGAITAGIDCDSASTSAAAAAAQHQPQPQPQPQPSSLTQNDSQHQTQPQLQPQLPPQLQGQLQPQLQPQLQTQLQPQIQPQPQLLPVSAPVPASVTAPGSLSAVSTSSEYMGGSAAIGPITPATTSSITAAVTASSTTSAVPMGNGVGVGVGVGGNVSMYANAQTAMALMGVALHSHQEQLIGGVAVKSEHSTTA
T1 sequence (P28700 whole entry, further chain): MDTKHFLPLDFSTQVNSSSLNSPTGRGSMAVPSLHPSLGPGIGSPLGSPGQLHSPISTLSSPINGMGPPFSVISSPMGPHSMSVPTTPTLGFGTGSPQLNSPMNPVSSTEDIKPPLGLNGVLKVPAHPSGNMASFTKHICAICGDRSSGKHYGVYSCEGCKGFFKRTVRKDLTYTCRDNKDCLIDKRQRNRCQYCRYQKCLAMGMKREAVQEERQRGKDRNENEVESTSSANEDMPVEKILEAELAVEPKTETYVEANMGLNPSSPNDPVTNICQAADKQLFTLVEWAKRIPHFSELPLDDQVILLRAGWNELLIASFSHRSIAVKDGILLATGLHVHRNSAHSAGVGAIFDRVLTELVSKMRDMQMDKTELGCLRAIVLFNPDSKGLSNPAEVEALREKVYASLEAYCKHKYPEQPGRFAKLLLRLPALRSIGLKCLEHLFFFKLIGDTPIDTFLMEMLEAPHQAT
Text: This system was purchased from Invitrogen Corp., Carlsbad, Calif. It comprises a Drosophila melanogaster EcR (“DmEcR”) with a modified DNABD fused to VP16AD and placed under the control of a CMV promoter (SEQ ID NO: 60). Full length MmRXR (SEQ ID NO: 53) was placed under the control of the RSV promoter (SEQ ID NO: 61). The reporter, pIND(SP1)LacZ, contains five copies of a modified ecdysone response element (“EcRE”, E/GRE), three copies of an SP1 enhancer, and a minimal heat shock promoter, all of which were placed upstream to the LacZ reporter gene.
(§2) The same procedures described for CHO were followed for 293 cells except that the cells were plated in biocoated plates to avoid clumping.
as §1

GAL4EcR + VP16RXR [1] = experiment: Transactivation of reporter genes through switch 1.1 in 3T3 cells
Text: In various cellular backgrounds, including mammalian cells, insect ecdysone receptor (EcR) heterodimerizes with retinoid X receptor (RXR) and, upon binding of ligand, transactivates genes under the control of ecdysone response elements. Applicants constructed several EcR-based gene expression cassettes based on the spruce budworm Choristoneura fumiferana EcR (“CfEcR”; full length polynucleotide and amino acid sequences are set forth in SEQ ID NO: 49 and SEQ ID NO: 50, respectively), C. fumiferana ultraspiracle (“CfUSP”; full length polynucleotide and amino acid sequences are set forth in SEQ ID NO: 51 and SEQ ID NO: 52, respectively), and mouse Mus musculus RXRα (MmRXRα; full length polynucleotide and amino acid sequences are set forth in SEQ ID NO: 53 and SEQ ID NO: 54, respectively). The prepared receptor constructs comprise a ligand binding domain of EcR and of RXR or of USP; a DNA binding domain of GAL4 or of EcR; and an activation domain of VP16. The reporter constructs include a reporter gene, luciferase or LacZ, operably linked to a synthetic promoter construct that comprises either GAL4 or EcR/USP binding sites (response elements). Various combinations of these receptor and reporter constructs were cotransfected into CHO, NIH3T3, CV1 and 293 cells. […] Reporter gene expression activities were assayed at 24 hr or 48 hr after ligand addition.
The same procedures described for CHO cells were followed for 3T3 cells as well with two modifications. The cells were plated when they reached 50% confluency. 125,000 or 50,000 or 25,000 cells were plated per well of 6- or 12- or 24-well plates respectively. The GAl4EcR/VP16RXR and reporter vector DNAs were transfected into NIH3T3 cells, the transfected cells were grown in medium containing PonA, MurA, N-(2-ethyl-3-methoxybenzoyl)-N′-(3,5-dimethylbenzoyl)-N′-t-butylhydrazine, or N-(3,4-(1,2-ethylenedioxy)-2-methylbenzoyl)-N′-(3,5-dimethylbenzoyl)-N′-tert-butylhydrazine for 48 hr. The ligand treatments were performed as described in the CHO cell section above.
Cells were harvested 24-48 hr after adding ligands. 125, 250, or 500 μl of passive lysis buffer (part of Dual-luciferase™ reporter assay system from Promega Corporation) were added to each well of 24- or 12- or […] respectively. The plates were placed on a rotary shaker for 15 min. Twenty μl of lysate was assayed. Luciferase activity was measured using Dual-luciferase™ reporter assay system from Promega Corporation following the manufacturer's instructions. β-Galactosidase was measured using Galacto-Star™ assay kit from TROPIX following the manufacturer's instructions. All luciferase and β-galactosidase activities were normalized using Renilla luciferase as a standard. Fold activities were calculated by dividing normalized relative light units (“RLU”) in ligand treated cells with normalized RLU in DMSO treated cells (untreated control).

GAL4EcR + VP16USP = experiment: Transactivation of reporter genes through switch 1.2 in 293 cells; assay type: cell-based, Choristoneura fumiferana; settings: switch 1.2 GAL4EcR + VP16USP, pGAL4RELuc
Experimental: This construct was prepared in the same way as in switch 1.1 above except MmRXRDEF was replaced with the D, E and F domains from spruce budworm USP (“CfUSPDEF”; SEQ ID NO: 58). The constructs used in this example are similar to those disclosed in U.S. Pat. No. 5,880,333 except that Choristoneura fumiferana USP rather than Drosophila melanogaster USP was utilized.
as §2, §1

GAL4RXR + VP16CfEcR [2] = experiment: Transactivation of reporter genes through switch 1.3 in CV1 cells; assay type: cell-based, Choristoneura fumiferana; settings: switch 1.3 GAL4RXR + VP16CfEcR, pGAL4RELuc
Experimental: (§3) The same procedures described for NIH3T3 cells were followed for CV1 cells
as §1

GAL4RXR + VP16CfEcR [3] = experiment: Transactivation of reporter genes through switch 1.3 in 293 cells; assay type: cell-based, Choristoneura fumiferana; settings: switch 1.3 GAL4RXR + VP16CfEcR, pGAL4RELuc
Experimental: as §2, §1

CfVgRXR + MmRXR [4] = experiment: Transactivation of reporter genes through switch 1.9 in CV1 cells; assay type: cell-based, Choristoneura fumiferana; settings: switch 1.9 CfVgRXR + MmRXR, pIND(SP1)LacZ
Experimental: (§4) This example was prepared in the same way as switch 1.8 except DinEcR was replaced with a truncated CfEcR comprising a partial A/B domain and the complete CDEF domains [SEQ ID NO: 62 (polynucleotide) and SEQ ID NO: 63 (polypeptide)].
as §3, §1

GAL4EcR + VP16RXR [5] = experiment: Transactivation of reporter genes through switch 1.1 in CV1 cells; assay type: cell-based, Choristoneura fumiferana; settings: switch 1.1 GAL4EcR + VP16RXR, pGAL4RELuc
Experimental: as §3, §1

CfVgRXR = experiment: Transactivation of reporter genes through switch 1.10 in 3T3 cells; assay type: cell-based, Choristoneura fumiferana; settings: switch 1.10 CfVgRXR, pIND(SP1)LacZ
Experimental: This example was prepared in the same way as switch 1.9 except MmRXR (SEQ ID NO: 53) was deleted.
The cells were plated when they reached 50% confluency.
as §1

GAL4EcR + VP16RXR [6] = experiment: Transactivation of reporter genes through switch 1.1 in 293 cells; assay type: cell-based, Choristoneura fumiferana; settings: switch 1.1 GAL4EcR + VP16RXR, pGAL4RELuc
Experimental: as §2, §1

CfVgRXR + MmRXR [7] = experiment: Transactivation of reporter genes through switch 1.9 in 293 cells; assay type: cell-based, Choristoneura fumiferana; settings: switch 1.9 CfVgRXR + MmRXR, pIND(SP1)LacZ
Experimental: as §4, §2, §1

CCc1c(OC)cccc1C(=O)NN(C(=O)c1cc(C)cc(C)c1)C(C)(C)C [N-(2-ethyl-3-methoxybenzoyl)-N′-(3,5-dimethylbenzoyl)-N′-tert-butylhydrazine]
Mean Fold Activation with 50 μM N-(2-ethyl-3-methoxybenzoyl)-N′-(3,5-dimethylbenzoyl)-N′-t-butylhydrazine (GAL4USP + VP16CfEcR): 2 fold
Mean Fold Activation Through N-(2-ethyl-3-methoxybenzoyl)-N′-(3,5-dimethylbenzoyl)-N′-t-butylhydrazine (DmVgRXR + MmRXR): 21 fold
Mean Fold Induction at 1.0 μM Concentration (GAL4EcR + VP16RXR [1]; GAL4CfEcRDEF/VP16MmRXRDEF (switch 1.1), 1.0 μM ligand, 48 hr): 116 fold
Mean Fold Activation Through N-(2-ethyl-3-methoxybenzoyl)-N′-(3,5-dimethylbenzoyl)-N′-t-butylhydrazine (GAL4EcR + VP16RXR [1]; switch 1.1 GAL4EcR + VP16RXR, pGAL4RELuc): 1118 fold
Mean Fold Activation Through N-(2-ethyl-3-methoxybenzoyl)-N′-(3,5-dimethylbenzoyl)-N′-t-butylhydrazine (GAL4EcR + VP16USP): 2 fold
Mean Fold Activation Through N-(2-ethyl-3-methoxybenzoyl)-N′-(3,5-dimethylbenzoyl)-N′-t-butylhydrazine (GAL4RXR + VP16CfEcR [2]): 25 fold
Mean Fold Activation Through N-(2-ethyl-3-methoxybenzoyl)-N′-(3,5-dimethylbenzoyl)-N′-t-butylhydrazine (GAL4RXR + VP16CfEcR [3]): 17 fold
Mean Fold Activation Through N-(2-ethyl-3-methoxybenzoyl)-N′-(3,5-dimethylbenzoyl)-N′-t-butylhydrazine (CfVgRXR + MmRXR [4]): 7 fold
Mean Fold Activation Through N-(2-ethyl-3-methoxybenzoyl)-N′-(3,5-dimethylbenzoyl)-N′-t-butylhydrazine (GAL4EcR + VP16RXR [5]): 279 fold
Mean Fold Activation Through N-(2-ethyl-3-methoxybenzoyl)-N′-(3,5-dimethylbenzoyl)-N′-t-butylhydrazine (CfVgRXR): 2 fold
Mean Fold Activation Through N-(2-ethyl-3-methoxybenzoyl)-N′-(3,5-dimethylbenzoyl)-N′-t-butylhydrazine (GAL4EcR + VP16RXR [6]): 125 fold
Mean Fold Activation Through N-(2-ethyl-3-methoxybenzoyl)-N′-(3,5-dimethylbenzoyl)-N′-t-butylhydrazine (CfVgRXR + MmRXR [7]): 12 fold
